These are literature values, as cited in article PMC3923778 (PLoS Currents, 2014).

The data set deals with HD mouse models. Also on record: method as in PMID 19281846, PMID 20923867, PMID 19291221, PMID 17184995. The following applies: ref [5], [7], [14], [15]; cited from earlier work.

As for `COc1ccc(C2CNC(=O)C2)cc1OC1CCCC1` (centres unmarked) [rolipram], the “disease progression in HD mouse models” value is recorded as “significantly delay disease progression”.

Consider TP-10, for which the “disease progression in HD mouse models” value was “significantly delay disease progression”.
